# Laboratory results from patent US10179939B2, “Growth-independent detection of cells” (GeneWeave Biosciences, Inc., priority 2014, dated 2019).
# Columns and labels:
# MSSA = assay: Non-replicative transduction particle luxAB reporter assay with cefoxitin; type: cell-based, S. aureus; settings: cells not phenotypically resistant to cefoxitin (MSSA); cefoxitin added prior to, simultaneously with, or after transduction particles
# Source text: (§1) To test the functionality of non-replicative transduction particles as reporters for detecting the presence of S. aureus cells, various MSSA/MRSA reporter assays were developed. In an embodiment, a non-replicative transduction particle was developed from a S. aureus-specific bacteriophage, and the bacterial luciferase genes luxAB under the control of a constitutive promoter were incorporated. When the non-replicative transduction particle delivered the reporter nucleic acid into S. aureus, the constitutive promoter expressed luxAB suitable for reporting on the presence of a viable S. aureus.
# (§2) In addition, the antibiotic cefoxitin was added prior to, simultaneously with, or after the addition of the transduction particles to a sample containing S. aureus cells.
# MRSA = assay: as above; type: cell-based, S. aureus; settings: cells phenotypically resistant to cefoxitin (MRSA); cefoxitin added prior to, simultaneously with, or after transduction particles
# Source text: as §1, §2
structure (smiles),measurement,setting,value
CO[C@@]1(NC(=O)Cc2cccs2)C(=O)N2C(C(=O)O)=C(COC(N)=O)CS[C@@H]21 [cefoxitin],luminescence,MSSA,decreased or eliminated
same,luminescence,MRSA,increased or detectable luminescence
